Measured values as given in patent US8957022B2, “Multimeric tie 2 agonists and uses thereof in stimulating angiogenesis” (Sunnybrook Health Sciences Centre, priority 2006, dated 2015).

Tests used:
CD1 mice = type: in vivo; conditions: 50 μg intravenously, peripheral blood 24 hours post injection
Method: In this example, the effect of systemically administered Vasculotide on circulating endothelial cells was examined. Three month old CD1 mice were injected intravenously with either PBS (vehicle) or 50 μg of clustered Vasculotide. Twenty four hours post injection, peripheral blood was collected on heparin via cardiac puncture and nonhematopoietic circulating endothelial cells (CECs) were sorted using a four channel FACS approach. CECs were defined as CD13^+/VEGFR-2^+/CD45^−, Viable (propidium iodide). Cell numbers reported are number of viable cells/μl of peripheral blood. Total white blood cell count was also determined using a hemocytometer.

MMP2 = test: Gelatin zymography of HUVEC conditioned media; type: cell-based, human; conditions: HUVEC, 0.1% FBS, 16 h, various concentrations
Method: In vivo, ECs can not migrate until they secrete enzymes necessary to break down components of the extra cellular matrix. Gelatin zymography was employed to determine if clustered Vasculotide promoted secretion of MMP2. To perform the zymography, HUVEC were cultured in F12 media plus 0.1% FBS and stimulated for 16 h with VEGF, unclustered Vasculotide or clustered Vasculotide at various concentrations. Conditioned media was centrifuged to remove cellular debris and prepared for gel electrophoresis using non-reducing conditions. Gels were washed twice for 30 minutes in 2.5% Triton X-100 to remove sodium dodecyl sulfate and were then incubated in substrate buffer (50 mmol/L Tris-HCl, pH 8.8, 5 mmol/L CaCl2) for 16 hours at 37° C. Gels were then stained with 0.5% Coomassie blue in 30% methanol/10% acetic acid for 2 hours at room temperature and destained in 50% methanol/10% acetic acid. The presence of metalloproteinases was indicated by unstained proteolytic zones in the gel.

[1] = tested on: focal adhesion kinase (FAK); test: FAK activation in HUVEC (pY397 FAK immunoblot); type: cell-based, human; conditions: time course
Method: HUVEC were stimulated with one of either Ang 1 (R&D Systems), Vasculotide, avidin or clustered Vasculotide (preclustered with a 4:1 molar ratio of peptide:avidin in PBS for 2 hours at 4° C.) at various doses. Stimulations with Vasculotide were performed in full serum containing growth media for 15 minutes unless otherwise indicated. Cell lysate preparations and immunoblot analysis were performed by standard methods. Antibodies used for immunoblotting (in this and/or subsequent Examples) were monoclonal anti Tie 2 (Pharminogen), polyclonal anti pY992 Tie 2, (Cell Signaling Technology), polyclonal anti MAPK (Cell Signaling Technology), monoclonal anti phospho MAPK (Cell Signaling Technology), polyclonal anti AKT (Cell Signaling Technology), polyclonal anti pS473 AKT (Cell Signaling Technology), monoclonal anti pS1177 eNOS (BD Biosciences), polyclonal anti pY397 FAK (Biosource), polyclonal anti FAK (Santa Cruz), polyclonal anti smooth muscle actin-Cy3 direct conjugate (Dako), polyclonal anti PECAM (Pharminogen) and polyclonal anti smooth muscle actin (Sigma).
To examine Tie 2 activation kinetics, HUVEC were stimulated with native Ang 1 or clustered Vasculotide for various times. Stimulation was performed in 10% FBS. […]

MAPK, AKT and eNOS = test: Phosphorylation of downstream signalling proteins in HUVEC (immunoblot); type: cell-based, human
Method: Having established that Vasculotide was able to bind Tie 2 (see Example 2), the ability of Vasculotide, when clustered with avidin in a 4:1 ratio (Vasculotide:avidin), to activate the Tie 2 receptor was tested by examining several well established downstream signalling pathways in human umbilical vein endothelial cells (HUVEC) (Cambrex, N.J.). Such signalling pathways are described in, for example, Kim, I. et al. (2000) Circ. Res. 9:952-959; Fujikawa, K. et al. (1999) Exp. Cell. Res. 2:663-672; Babaei, S. et al. (2003) Am. J. Pathol. 6:1927-1936.
HUVEC were grown on 6-well or 10 cm plates (Nunc) coated with gelatin (Sigma). HUVEC were cultured in F12 growth medium containing 10% fetal bovine serum (FBS), 0.1 mg/ml heparin sulphate, 1× penicillin, 1× streptomycin, 1× glutamine, VEGF 10 ng/ml, EGF 10 ng/ml, bFGF 5 ng/ml. All HUVEC were used between passage 3-9.
HUVEC were stimulated with one of either Ang 1 (R&D Systems), Vasculotide, avidin or clustered Vasculotide (preclustered with a 4:1 molar ratio of peptide:avidin in PBS for 2 hours at 4° C.) at various doses. Stimulations with Vasculotide were performed in full serum containing growth media for 15 minutes unless otherwise indicated. Cell lysate preparations and immunoblot analysis were performed by standard methods. […]

Vasculotide: biotinylated T7 peptide-PEG: Cys-His-His-His-Arg-His-Ser-Phe (SEQ ID NO: 2) conjugated to EZ-link-PEO-maleimide-biotin
Number of circulating endothelial cells (CD1 mice): decrease in the number of circulating endothelial cells

clustered Vasculotide: Vasculotide clustered with avidin in a 4:1 ratio, an obligate tetrameric compound
Secretion of MMP2 (gelatin degradation, pro and active forms) (MMP2): dose-dependently degraded gelatin
Activation of FAK [1]: no significant effect
pMAPK and pAKT in the time course (MAPK, AKT and eNOS; 10% FBS): marked increases in pMAPK and pAKT
Phosphorylation of Tie 2-responsive proteins MAPK, AKT and eNOS (MAPK, AKT and eNOS; coincident with receptor activation): phosphorylation of several known Tie 2-responsive proteins including MAPK, AKT and eNOS, was observed
